The experiment deals with HIV-1 (RF). Put plainly: HIV RNA assay, microplate based compound evaluation in HIV-1 infected MT-2 cells. It counts as cell-based. The following applies: Human immunodeficiency virus 1, MT2, 72 h; HIV-1 (RF) in MT-2 cells, 3 days culture; virus dilutions selected to give this value; read-out: IC90 value (concentration of compound required to reduce the HIV RNA level by 90%). How it is done:
MT-2 and MT-4 cells were maintained in RPMI 1640 supplemented with 5% fetal calf serum (FCS) for MT-2 cells or 10% FCS for MT-4 cells, 2 mM L-glutamine and 50 μg/mL gentamycin, all from Gibco. HIV-1 RF was propagated in MT-4 cells in the same medium. Virus stocks were prepared approximately 10 days after acute infection of MT-4 cells and stored as aliquots at −70° C. Infectious titers of HIV-1(RF) stocks were 1-3×10^7 PFU (plaque forming units)/mL as measured by plaque assay on MT-2 cells (see below) Each aliquot of virus stock used for infection was thawed only once.
For evaluation of antiviral efficacy, cells to be infected were subcultured one day prior to infection. […]
Cell lysates or purified RNA in 3 M or 5 M GED were mixed with 5 M GED and capture probe to a final guanidinium isothiocyanate concentration of 3 M and a final biotin oligonucleotide concentration of 30 nM. […] Immobilized alkaline phosphatase activity was detected by addition of 100 μL of 0.2 mM 4-methylumbelliferyl phosphate (MUBP, JBL Scientific) in buffer (2.5 M diethanolamine pH 8.9 (JBL Scientific), 10 MM MgCl2, 5 mM zinc acetate dihydrate and 5 mM N-hydroxyethyl-ethylene-diamine-triacetic acid). […] Fluorescence at […] was measured using a microplate fluorometer (Dynateck) exciting at […]. […]

The source of these data is US6969721B2, “Tricyclic-2-pyridone compounds useful as HIV reverse transcriptase inhibitors” (Bristol-Myers Squibb Pharma, priority 2000, dated 2005).

Molecules are shown by their SMILES. ≈ marks a conversion by molar mass, not a printed value.

As for `Nc1ccn([C@H]2CC[C@@H](CO)O2)c(=O)n1` [ddC, 2′,3′-dideoxycytidine], the IC90 is 0.2 µg/mL (≈ 0.947 µM).
